# Measured values published in paper PMC10384862, “[^212Pb]Pb-eSOMA-01: A Promising Radioligand for Targeted Alpha Therapy of Neuroendocrine Tumors” (Pharmaceuticals, 2023).
# Read-outs that look alike come from different tables or passages of the source.
# Key:
# CD-1 mice = settings: cited from earlier work; for Pancreas uptake: CD-1 mice
# [1] = tested on: H69-xenograft Balb/c nu/nu mice; assay: Biodistribution study with lead-212; type: in vivo, mouse; settings: for Stomach uptake: 1 h p.i.
# Protocol: (§1) Six-week-old male Balb/c nu/nu-specific and opportunistic pathogen-tree (SOPF) mice (Janvier Labs, Le Genest-Saint-Isle, France) were housed in individually ventilated cages, with four mice per cage. Upon arrival, the mice were acclimated for 1 week with access to food and water ad libitum. Mice were subcutaneously inoculated on the right shoulder with NCI-H69 cells (5 × 10^6 cells suspended in 100 μL of 1/3 Matrigel (Corning Inc.; Corning, NY, USA) and 2/3 Hank’s balanced salt solution (Gibco; Paisley, UK). NCI-H69 xenografts were allowed to grow for 3 weeks. Tumor sizes were 391 ± 173 mm^3 at the start of the studies.
# (§2) Biodistribution studies were performed to determine tumor and organ uptake of [^212Pb]Pb-DOTAM-TATE, [^212Pb]Pb-eSOMA-01, and [^212Pb]Pb-eSOMA-02. Animals (n = 4 for each time point) were injected intravenously (i.v.) with an average of 100 kBq/0.5 nmol. At 3 selected time points (1, 4, and 24 h) p.i., blood was collected via retro-orbital puncture under isoflurane/O2 anesthesia, after which the mice were sacrificed via cervical dislocation. The tumor and organs of interest (heart, lungs, liver, spleen, stomach, large intestine, small intestine, pancreas, kidneys, muscle, skin, and bone) were excised, washed in PBS, and blotted dry. To confirm receptor specificity of radioligand uptake, mice (n = 3) were co-injected with an excess (25 nmol) of the respective unlabeled peptide, and uptake in the organs of interest was determined at 24 h p.i. To determine the total injected radioactivity per animal, a calibration curve with lead-212 was established using the gamma counter. The percentage of injected dose per gram (% ID/g) was determined for each tissue sample and corrected for both the injected volume and the % ID present at the injection site (the tail).
# [2] = Biodistribution study with lead-212; type: in vivo, mouse; settings: mouse, intravenous; for tissue uptake at 1 h: 1 h p.i.; for tissue uptake at 4 h: 4 h p.i.
# Protocol: as §1, §2
# [3] = In vitro stability in PBS; type: physicochemical; settings: ^212Pb-labeled, 37 °C, n = 1
# Protocol: The ^203Pb-labeled compounds (~ 2 MBq) or the ^212Pb-labeled compounds (~ 70 kBq) were incubated in 300 µL of phosphate buffered saline (PBS; 0.1 M, pH 7.4) or mouse serum at 37 °C. The stability of the radiolabeled peptides was monitored at 1, 4, and 24 h post-incubation. The samples in PBS were directly analyzed by radio-HPLC without any pretreatment. However, samples of mouse serum were mixed with an equal volume of acetonitrile to precipitate the proteins. The solution was centrifuged twice for 5 min at 13,000 rpm, and the supernatant was analyzed by radio-HPLC using Method 1 for lead-203 and Method 2 for lead-212.
# kidney uptake = settings: in vivo; cited from earlier work
# [4] = tested on: H69-tumor xenograft and organs; assay: Dosimetry (absorbed dose from 212Pb biodistribution, RADAR mouse phantom); type: in vivo; settings: based on MTD to the kidneys of 18–23 Gy
# Protocol: Single exponential curves were fitted through the organ biodistribution time-activity data using Graphpad Prism. […] The absorbed doses were calculated with the MIRD equation D=∑sms×[TIACs]×S(t←s) , with ms being the source organ mass. A relative biological effect (RBE) of 5 was assumed for the alpha-radiation [47]. The uncertainty propagation in the dosimetry result was calculated [48].
# [5] = blood, 100 kBq, n = 4, read-out: Blood uptake
# [6] = bone, 100 kBq, n = 4, read-out: Bones uptake
# [7] = heart, 100 kBq, n = 4, read-out: Heart uptake
# [8] = intestines, 100 kBq, n = 4, read-out: Intestines uptake
# [9] = intestines, 100 kBq, 24 h p.i., n = 4, read-out: Intestines uptake
# [10] = kidneys, 100 kBq, n = 4, read-out: Kidneys uptake
# [11] = kidneys, 100 kBq, 24 h p.i., n = 4, read-out: Kidneys uptake
# [12] = kidneys, 24 h block: co-injection of excess (25 nmol) unlabeled peptide, read-out: Kidneys uptake
# [13] = liver, 100 kBq, n = 4, read-out: Liver uptake
# [14] = liver, 100 kBq, 24 h p.i., n = 4, read-out: Liver uptake
# [15] = liver, 24 h block: co-injection of excess (25 nmol) unlabeled peptide, read-out: Liver uptake
# [16] = lungs, 100 kBq, n = 4, read-out: Lungs uptake
# [17] = lungs, 100 kBq, 24 h p.i., n = 4, read-out: Lungs uptake
# [18] = pancreas, 100 kBq, n = 4, read-out: Pancreas uptake
# [19] = skin, 100 kBq, n = 4, read-out: Skin uptake
# [20] = spleen, 100 kBq, n = 4, read-out: Spleen uptake
# [21] = stomach, 100 kBq, n = 4, read-out: Stomach uptake
# [22] = stomach, 100 kBq, 24 h p.i., n = 4, read-out: Stomach uptake
# [23] = stomach, 24 h block: co-injection of excess (25 nmol) unlabeled peptide, read-out: Stomach uptake
# [24] = tumor, 100 kBq, n = 4, read-out: Tumor uptake
# [25] = tumor, 100 kBq, 24 h p.i., n = 4, read-out: Tumor uptake
smiles,measurement,setting,value
"C[C@@H](O)[C@H](NC(=O)[C@@H]1CSSC[C@H](NC(=O)[C@@H](Cc2ccccc2)NC(=O)CN2CCN(CC(N)=O)CCN(CC(N)=O)CCN(CC(N)=O)CC2)C(=O)N[C@@H](Cc2ccc(O)cc2)C(=O)N[C@H](Cc2c[nH]c3ccccc23)C(=O)N[C@@H](CCCCN)C(=O)N[C@@H]([C@@H](C)O)C(=O)N1)C(=O)O [[^212Pb]Pb-DOTAM-TATE, metal not drawn, reference compound]",Pancreas uptake,"CD-1 mice; 1 h, ref Tworowska et al.",32 % ID/g
same,Kidney uptake,"CD-1 mice; 1 h, ref Tworowska et al.",21 % ID/g
same,Pancreas uptake,"CD-1 mice; 4 h, ref Tworowska et al.",15 % ID/g
same,Kidney uptake,"CD-1 mice; 24 h, ref Tworowska et al.",10 % ID/g
same,MTD (maximum tolerated absorbed dose) to the kidneys,CD-1 mice; mice,18–23 Gy
same,Tumor uptake,CD-1 mice; ref Tworowska et al.,~ 20 % ID/g
same,Stomach uptake,[1]; n = 4,2.7 % ID/g
same,Tumor uptake,"[1]; 4 h p.i., n = 4",~ 9 % ID/g
same,Kidneys uptake,"[1]; 24 h p.i., n = 4",29 ± 6 % ID/g
same,Tumor uptake,"[1]; 24 h p.i., n = 4",~ 6 % ID/g
same,tissue uptake at 1 h,[2]; [5],1.34 ± 0.53 %ID/g
same,tissue uptake at 4 h,[2]; [5],0.02 ± 0.03 %ID/g
same,tissue uptake at 1 h,[2]; [6],0.69 ± 0.02 %ID/g
same,tissue uptake at 1 h,[2]; [7],0.61 ± 0.34 %ID/g
same,tissue uptake at 1 h,[2]; [8],2.03 ± 0.63 %ID/g
same,tissue uptake at 4 h,[2]; [8],0.68 ± 0.08 %ID/g
same,tissue uptake at 24 h,[2]; [9],0.22 ± 0.04 %ID/g
same,tissue uptake at 1 h,[2]; [10],53.5 ± 4.18 %ID/g
same,tissue uptake at 4 h,[2]; [10],49.4 ± 2.92 %ID/g
same,tissue uptake at 24 h,[2]; [11],29.2 ± 5.11 %ID/g
same,tissue uptake at 24 h,[2]; [12],25.8 ± 9.18 %ID/g
same,tissue uptake at 1 h,[2]; [13],2.69 ± 0.18 %ID/g
same,tissue uptake at 4 h,[2]; [13],2.26 ± 0.3 %ID/g
same,tissue uptake at 24 h,[2]; [14],1.42 ± 0.17 %ID/g
same,tissue uptake at 24 h,[2]; [15],0.25 ± 0.46 %ID/g
same,tissue uptake at 1 h,[2]; [16],2.75 ± 0.52 %ID/g
same,tissue uptake at 4 h,[2]; [16],0.82 ± 0.36 %ID/g
same,tissue uptake at 24 h,[2]; [17],0.33 ± 0.11 %ID/g
same,tissue uptake at 1 h,[2]; [18],5.19 ± 0.84 %ID/g
same,tissue uptake at 4 h,[2]; [18],1.14 ± 0.13 %ID/g
same,tissue uptake at 24 h,"[2]; pancreas, 100 kBq, 24 h p.i., n = 4, read-out: Pancreas uptake",0.28 ± 0.06 %ID/g
same,tissue uptake at 1 h,[2]; [19],1 ± 0.38 %ID/g
same,tissue uptake at 4 h,[2]; [19],0.59 ± 0.21 %ID/g
same,tissue uptake at 1 h,[2]; [20],0.55 ± 0.21 %ID/g
same,tissue uptake at 4 h,[2]; [20],0.22 ± 0.06 %ID/g
same,tissue uptake at 1 h,[2]; [21],2.69 ± 0.53 %ID/g
same,tissue uptake at 4 h,[2]; [21],1.62 ± 0.5 %ID/g
same,tissue uptake at 24 h,[2]; [22],0.61 ± 0.18 %ID/g
same,tissue uptake at 24 h,[2]; [23],0.25 ± 0.28 %ID/g
same,tissue uptake at 1 h,[2]; [24],9.57 ± 3.05 %ID/g
same,tissue uptake at 4 h,[2]; [24],8.04 ± 3.26 %ID/g
same,tissue uptake at 24 h,[2]; [25],6.07 ± 1.28 %ID/g
same,tissue uptake,"[2]; tumor, 100 kBq, time point not stated",8 to 9 %ID/g
same,"Stability in PBS, intact labeled ligand",[3]; 1 h,99%
same,"Stability in PBS, intact labeled ligand",[3]; 4 h,98%
same,"Stability in PBS, intact labeled ligand",[3]; 24 h,95%
same,Reduction in kidney uptake,kidney uptake,3 fold
"C[C@@H](O)[C@H](NC(=O)[C@@H]1CSSC[C@H](NC(=O)[C@@H](Cc2ccccc2)NC(=O)[C@H]2CC[C@H](CNC(=O)CN3CCN(CC(N)=O)CCN(CC(N)=O)CCN(CC(N)=O)CC3)CC2)C(=O)N[C@@H](Cc2ccc(O)cc2)C(=O)N[C@H](Cc2c[nH]c3ccccc23)C(=O)N[C@@H](CCCCN)C(=O)N[C@@H]([C@@H](C)O)C(=O)N1)C(=O)O [[^212Pb]Pb-eSOMA-01, metal not drawn]",More tumor uptake than [212Pb]Pb-eSOMA-02,"[1]; 1 h and 24 h, p < 0.05",61%
same,Stomach uptake,[1]; n = 4,7.1 % ID/g
same,Tumor uptake,"[1]; 4 h p.i., n = 4",~ 9 % ID/g
same,Tumor uptake,"[1]; 24 h p.i., n = 4",~ 6 % ID/g
same,tissue uptake at 1 h,[2]; [5],1.8 ± 0.37 %ID/g
same,tissue uptake at 1 h,[2]; [6],1.75 ± 0.44 %ID/g
same,tissue uptake at 4 h,[2]; [6],0.14 ± 0.09 %ID/g
same,tissue uptake at 1 h,[2]; [7],0.71 ± 0.33 %ID/g
same,tissue uptake at 1 h,[2]; [8],2.12 ± 0.39 %ID/g
same,tissue uptake at 4 h,[2]; [8],0.97 ± 0.12 %ID/g
same,tissue uptake at 24 h,[2]; [9],0.23 ± 0.02 %ID/g
same,tissue uptake at 24 h,"[2]; intestines, 24 h block: co-injection of excess (25 nmol) unlabeled peptide, read-out: Intestines uptake",0.06 ± 0.04 %ID/g
same,tissue uptake at 1 h,[2]; [10],78.8 ± 12.1 %ID/g
same,tissue uptake at 4 h,[2]; [10],39.6 ± 4.95 %ID/g
same,tissue uptake at 24 h,[2]; [11],22 ± 4.06 %ID/g
same,tissue uptake at 24 h,[2]; [12],17.8 ± 3.85 %ID/g
same,tissue uptake at 1 h,[2]; [13],4.72 ± 0.53 %ID/g
same,tissue uptake at 4 h,[2]; [13],2.73 ± 0.49 %ID/g
same,tissue uptake at 24 h,[2]; [14],1.7 ± 0.31 %ID/g
same,tissue uptake at 24 h,[2]; [15],1.07 ± 0.14 %ID/g
same,tissue uptake at 1 h,[2]; [16],4.05 ± 0.69 %ID/g
same,tissue uptake at 4 h,[2]; [16],1.38 ± 0.54 %ID/g
same,tissue uptake at 24 h,[2]; [17],0.44 ± 0.2 %ID/g
same,tissue uptake at 1 h,"[2]; muscle, 100 kBq, n = 4, read-out: Muscle uptake",0.22 ± 0.51 %ID/g
same,tissue uptake at 1 h,[2]; [18],7.86 ± 0.43 %ID/g
same,tissue uptake at 4 h,[2]; [18],1.72 ± 0.16 %ID/g
same,tissue uptake at 1 h,[2]; [19],2.23 ± 0.26 %ID/g
same,tissue uptake at 4 h,[2]; [19],0.17 ± 0.74 %ID/g
same,tissue uptake at 1 h,[2]; [20],0.98 ± 0.28 %ID/g
same,tissue uptake at 4 h,[2]; [20],0.23 ± 0.12 %ID/g
same,tissue uptake at 1 h,[2]; [21],7.08 ± 0.28 %ID/g
same,tissue uptake at 4 h,[2]; [21],2.51 ± 1.51 %ID/g
same,tissue uptake at 24 h,[2]; [22],0.87 ± 0.53 %ID/g
same,tissue uptake at 24 h,[2]; [23],0.05 ± 0.01 %ID/g
same,tissue uptake at 1 h,[2]; [24],16.1 ± 2.31 %ID/g
same,tissue uptake at 4 h,[2]; [24],10.9 ± 3.81 %ID/g
same,tissue uptake at 24 h,[2]; [25],6.83 ± 1.28 %ID/g
same,Maximum dose injected into mice,[4],around 0.2 MBq
same,"Stability in PBS, intact labeled ligand",[3]; 1 h,99%
same,"Stability in PBS, intact labeled ligand",[3]; 4 h,97%
same,"Stability in PBS, intact labeled ligand",[3]; 24 h,94%
